The values that follow come from PubChem BioAssay (NCI).

Some test systems named below: DLD-1 colon; DMS 273 small cell lung; HOP-18 NSCLC; KM20L2 colon; LXFL 529 NSCLC; M19-MEL melanoma; RXF-631 renal; SNB-78 CNS; DMS 114 small cell lung; XF 498 CNS.
Assay in all cases: inhibition of tumour cell growth, NCI panel, 48 h

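1) Cells in 96-well plates. 2) Compound, 48 h, 5 concentrations. 3) Linear interpolation between surrounding doses. 4) Unreached endpoint = highest concentration. TGI marks complete inhibition of growth.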 Where only a bound is given, the exact number is not on record here.

Turning to `O/N=C/c1cc2c(cc1Br)OCO2`, the TGI in the experiment with DLD-1 colon, with DMS 273 small cell lung, in the experiment with HOP-18 NSCLC, in the experiment with KM20L2 colon, with LXFL 529 NSCLC and with M19-MEL melanoma was over 100 µM throughout. Besides, the TGI in the experiment on RXF-631 renal and in the experiment with SNB-78 CNS was over 100 µM in each case.
Regarding `COc1cc(Cl)cc(N(O)C(C)=O)c1OCc1ccccc1`, the TGI in the experiment with DLD-1 colon was over 100 µM; with DMS 114 small cell lung, 71.5 µM; in the experiment with DMS 273 small cell lung, over 100 µM; in the experiment on HOP-18 NSCLC it was over 100 µM; with KM20L2 colon, over 100 µM; with LXFL 529 NSCLC it was over 100 µM. Also, the TGI in the experiment with M19-MEL melanoma, in the experiment with SNB-78 CNS and in the experiment on XF 498 CNS was over 100 µM each time.
`CCC(CC)n1cc(C(=O)NC(=O)NCCCCCOC(=O)CCCCCCCCCCC(=O)OCCCCCNC(=O)NC(=O)c2cn(C(CC)CC)c(=O)[nH]c2=O)c(=O)[nH]c1=O`: the TGI in the experiment with DLD-1 colon, in the experiment on DMS 114 small cell lung, in the experiment with DMS 273 small cell lung, in the experiment with HOP-18 NSCLC, with KM20L2 colon and in the experiment on LXFL 529 NSCLC was over 100 µM throughout. Besides, the TGI in the experiment with M19-MEL melanoma, in the experiment on RXF-631 renal, in the experiment with SNB-78 CNS and with XF 498 CNS was over 100 µM throughout.
For `C=CCN(N=O)C(=O)N(CCCC(NC(C)=O)C(=O)NCc1ccccc1)Cc1ccccc1` (configuration not stated), the TGI in the experiment with DMS 114 small cell lung, with DMS 273 small cell lung, in the experiment on KM20L2 colon, with LXFL 529 NSCLC, in the experiment with M19-MEL melanoma and with RXF-631 renal was over 100 µM in each case. For the same molecule, in the experiment on XF 498 CNS, the TGI was over 100 µM.
For `CCn1c2ccccc2c2ccc3c(c21)C(=O)c1ccccc1C3=O`, the TGI with DLD-1 colon, in the experiment on DMS 114 small cell lung, in the experiment with DMS 273 small cell lung, with HOP-18 NSCLC, in the experiment with KM20L2 colon and with LXFL 529 NSCLC was over 100 µM throughout. Also, the TGI with M19-MEL melanoma is 60.6 µM; in the experiment with SNB-78 CNS, over 100 µM; with XF 498 CNS, over 100 µM.
For the molecule `Cc1cccc(NC(=O)c2cc3cc(N=Nc4ccccc4Cl)ccc3oc2=O)c1`, the TGI in the experiment with DLD-1 colon was over 100 µM; in the experiment with DMS 114 small cell lung, 66.8 µM; with DMS 273 small cell lung, over 100 µM; in the experiment on HOP-18 NSCLC, over 100 µM; in the experiment with KM20L2 colon, over 100 µM; in the experiment with LXFL 529 NSCLC, over 100 µM. Besides, the TGI with M19-MEL melanoma is over 100 µM; in the experiment with RXF-631 renal it was over 100 µM; in the experiment on SNB-78 CNS, over 100 µM; in the experiment with XF 498 CNS it was 64.5 µM.
For the molecule `COC(=O)C1C2C=CC(C2)C1(C(=O)OC)S(=O)CC12CCC(CC1O)C2(C)C` (configuration not stated), the TGI in the experiment on DLD-1 colon, in the experiment on DMS 114 small cell lung, in the experiment on DMS 273 small cell lung, with HOP-18 NSCLC, with KM20L2 colon and in the experiment with LXFL 529 NSCLC was over 100 µM each time. In addition, the TGI with M19-MEL melanoma, in the experiment on RXF-631 renal, with SNB-78 CNS and in the experiment with XF 498 CNS was over 100 µM in each case.
Take `COc1cc(Cn2c(=S)ss/c2=N\C(=S)N(C)C)cc(OC)c1OC`: the TGI was over 100 µM in the experiment on DLD-1 colon; 12.8 µM in the experiment with DMS 114 small cell lung; over 100 µM with DMS 273 small cell lung; over 100 µM in the experiment on HOP-18 NSCLC; over 100 µM in the experiment on KM20L2 colon; over 100 µM with LXFL 529 NSCLC. For the same molecule, the TGI with M19-MEL melanoma was over 66.2 µM; with RXF-631 renal it was over 100 µM; with SNB-78 CNS, over 100 µM.
For `COc1ccc(C(Cc2cc(OC)c(OC)c(OC)c2)C(=O)O)cc1` (configuration not stated), the TGI in the experiment with DLD-1 colon, in the experiment on DMS 114 small cell lung, with DMS 273 small cell lung, with HOP-18 NSCLC, with KM20L2 colon and in the experiment with M19-MEL melanoma was over 100 µM throughout. The TGI in the experiment with RXF-631 renal, in the experiment with SNB-78 CNS and in the experiment with XF 498 CNS was over 100 µM in each case.
As for `COC(=O)C1=C(C(=O)OC)C2C(C)=CC(C)=CN2C(C#N)=C(SC)S1` (configuration not stated), the TGI in the experiment on DLD-1 colon was 49.2 µM; in the experiment on DMS 114 small cell lung, 54.7 µM; with DMS 273 small cell lung, over 100 µM; in the experiment on KM20L2 colon it was 86.7 µM; in the experiment with LXFL 529 NSCLC, 37.6 µM; with M19-MEL melanoma it was 33.8 µM. This molecule also displayed a TGI in the experiment with SNB-78 CNS of over 100 µM.
As to `O=C(Cc1ccccc1)NN1C(=O)C(Cl)C1c1ccc([N+](=O)[O-])cc1` (configuration not stated), the TGI with DLD-1 colon, in the experiment on DMS 114 small cell lung, with DMS 273 small cell lung, with HOP-18 NSCLC, in the experiment on KM20L2 colon and in the experiment with LXFL 529 NSCLC was over 100 µM each time. For the same molecule, the TGI with M19-MEL melanoma, in the experiment with SNB-78 CNS and with XF 498 CNS was over 100 µM throughout.
Consider `C=CN1C(=O)OC[C@@H]1c1ccccc1`, for which the TGI with DLD-1 colon was over 100 µM; in the experiment with DMS 114 small cell lung it was over 100 µM; in the experiment on DMS 273 small cell lung, 50.7 µM; in the experiment with HOP-18 NSCLC, over 100 µM; in the experiment with KM20L2 colon, over 100 µM; in the experiment with LXFL 529 NSCLC it was over 100 µM. In addition, the TGI with M19-MEL melanoma, with RXF-631 renal, in the experiment on SNB-78 CNS and in the experiment on XF 498 CNS was over 100 µM each time.
As to `Nc1ccc(C(=O)NN2C(=O)C(Cl)C2c2cc(Br)ccc2O)cc1` (configuration not stated), the TGI in the experiment with DLD-1 colon, in the experiment with DMS 114 small cell lung, in the experiment on DMS 273 small cell lung, in the experiment on KM20L2 colon, in the experiment with LXFL 529 NSCLC and in the experiment on M19-MEL melanoma was over 100 µM in each case. For the same molecule, the TGI with SNB-78 CNS and in the experiment with XF 498 CNS was over 100 µM in each case.
As for `COP(=O)(OC)C(=NCc1ccccc1)NNc1ccc([N+](=O)[O-])cc1`, the TGI in the experiment on DLD-1 colon was over 100 µM; in the experiment on DMS 114 small cell lung, 76 µM; with DMS 273 small cell lung it was over 100 µM; with KM20L2 colon, over 100 µM; with LXFL 529 NSCLC, over 100 µM; in the experiment with M19-MEL melanoma, over 100 µM.
As to `COc1ccc(N(C)Sc2ccccc2)cc1`, the TGI with DLD-1 colon, in the experiment on DMS 114 small cell lung, in the experiment with DMS 273 small cell lung, in the experiment with HOP-18 NSCLC, with KM20L2 colon and with LXFL 529 NSCLC was over 100 µM throughout. Besides, the TGI is over 100 µM in the experiment with M19-MEL melanoma, over 100 µM in the experiment with SNB-78 CNS and 96.6 µM in the experiment on XF 498 CNS.
Regarding `COc1c(OC)c(N)c2cc(C)c(=O)c(C)cc2c1N`, the TGI in the experiment on DLD-1 colon, with DMS 114 small cell lung, with DMS 273 small cell lung, in the experiment with HOP-18 NSCLC, with KM20L2 colon and in the experiment with LXFL 529 NSCLC was over 100 µM throughout. The TGI in the experiment on M19-MEL melanoma, with SNB-78 CNS and in the experiment on XF 498 CNS was over 100 µM each time.
For `CN(C(=O)c1ccc(Cl)cc1)C(=S)N1CCN(c2ccccn2)CC1`, the TGI with DLD-1 colon, with DMS 114 small cell lung, in the experiment with DMS 273 small cell lung, with HOP-18 NSCLC, in the experiment on KM20L2 colon and with LXFL 529 NSCLC was over 100 µM in each case. For the same molecule, the TGI in the experiment with M19-MEL melanoma and in the experiment on SNB-78 CNS was over 100 µM each time.
